Laboratory results reported in patent US12485191B2, “Radiopharmaceuticals and methods of use thereof” (BOARD OF REGENTS OF THE UNIVERSITY OF NEBRASKA, priority 2017, dated 2025).
Marks after values point to notes of the source that are not given here.

Assays:
HT-29 xenograft tumors [1] = assay: Biodistribution study in HT-29 xenograft mouse model; format: in vivo, mice; conditions: HT-29 xenograft, by 24 hours
Description: Female SCID mice (5 weeks of age) received subcutaneous injections of HT-29 cells (5×10^6) suspended in Matrigel® into the flanks. When the tumor size reached 80 mm^3 (two weeks after injection), the mice were randomized into three groups and intravenously injected with 10 μCi (0.37 MBq) of the purified ^177Lu labeled conjugates via tail vein. The mice were sacrificed and the tissues were excised at 4, 24, and 72 hours post-injection time points. The blood, tumor, and excised tissues were weighed. The radioactivity for each sample was measured using a gamma counter. The percentage injected dose per gram (% ID/g) and the radioactivity ratios between tumor and non-targeted tissues were calculated.

[2] = Distribution coefficient (Log D7.4) of the conjugates; format: physicochemical; conditions: determined by radiometric analysis; 177Lu-labeled conjugate
Description: Distribution Coefficient (Log D7.4) of the Conjugates The distribution coefficient was determined for each ^177Lu-labeled conjugate. In a 1.5 mL centrifuge tube, 0.5 mL of 1-octanol was added to 0.5 mL of PBS (pH 7.4) containing the radiolabeled peptide (500,000 cpm). The solution was vigorously vortexed for 2 minutes at room temperature and subsequently centrifuged to yield two immiscible layers. The radioactivity of the aliquots (100 μL) taken from each layer were quantified by the gamma counter and the Log D7.4 for each conjugates was calculated.

HT-29 xenograft tumors [3] = assay: Tissue adduct formation of the radioconjugates (SDS-PAGE, centrifugal filtration); format: in vivo, mice; conditions: autoradiographic SDS-PAGE, 24 hours post-injection
Description: The radioconjugates (800 μCi/mouse) were intravenously injected to the tumor bearing mice. The mice were sacrificed and the tumor, liver, and kidney were excised at 24 and 72 hours post-injection time points. The tumor and organs were homogenized in RIPA buffer (50 mg/100 μL) containing Halt™ protease inhibitor (100×, 1 μL) on ice and centrifuged to remove the pellet. An aliquot (20 μL) of the supernatant of the sample at 24 hours was mixed with Novex Tris-Glycine SDS sample buffer (2×, 20 μL) and incubated for further 10 minutes. The mixtures (20 μL) were loaded onto a Novex 16% tris-glycine gel and analyzed by SDS-PAGE at 110 V for 90 minutes. The autoradiograph of the SDS-PAGE was performed according to the same method in section 3.8.1. On the other hand, the aliquots (100 μL) of supernatants of all the tumor samples at 24 hours and 72 hours were individually centrifuged with Pierce™ protein concentrators (MWCO=10 kDa) to separate the low molecular weight radioactivity. The radioactivity in each fraction was quantified using a gamma counter to calculate the percentage of the cysteine proteases trapped radioconjugate in the total counts.

HT-29 cells [4] = assay: Intracellular trapping of the radioconjugates in living HT-29 cells (GPC, SDS-PAGE); format: cell-based, human; conditions: live HT-29 cells, GPC and SDS-PAGE
Description: Intracellular Trapping of the Radioconjugates in Living HT-29 Cells
To the HT-29 cells (1×10^6/well) seeded in 6-well plates was added the radioconjugates (0.74 MBq, 20 μCi) in 1 mL of cell culture medium. The cells were incubated at 37° C. for 4 hours and the medium was removed by vacuum followed washing with PBS (2×2 mL). The cells (˜3×10^6) were trypsinized and combined in microcentrifuge. The RIPA buffer (100 μL) containing Halttmprotease inhibitor (100×, 1 μL) was added to the cell pellet and vigorously vortexed for 1 minute. The suspension was incubated on ice for 15 minutes and centrifuged to remove the pellet. The supernatant (80 μL) was equally divided into two portions. The first portion (40 μL) was directly analyzed by radioactive-GPC with a flow rate of 0.6 mL/minute (40% ACN in PBS containing 0.1% sodium azide). The second portion (40 μL) of the cell lysate was mixed with Novex Tris-Glycine SDS sample buffer (2×) (40 μL) and incubated for another 15 minutes. The mixture (30 μL) was loaded onto a Novex 16% tris-glycine gel and analyzed by SDS-PAGE at 110 V for 90 minutes. The autoradiograph of the SDS-PAGE was performed as described above.

[5] = molecular target: T1, cathepsin B (human Liver) (Homo sapiens, UniProt P07858); assay: Inhibition constant (Ki) of the compounds to cathepsin B; format: biochemical
T1 construct: from tissue; host or cells: human liver
Description: Determination of the Km and Vmax of Cathepsin B for Z-Arg-Arg-AMC
The solution of cathepsin B (human Liver) (50 μL, 2 nM) in assay buffer used above was mixed with 50 μL of solution of substrate Z-Arg-Arg-AMC in the assay buffer at different concentrations ([S]) (25 μM, 50 μM, 100 μM, 500 μM and 1 mM). The mixture was incubated at 37° C. and the fluorescence of the liberated aminomethylcoumarin at 460 nM using 355 nm excitation was measured at predetermined time points (0, 2, 4, 6, 8, and 10 minutes). The fluorescence intensity was plotted versus time and the reaction rates (v0) were calculated as the slope of the trend lines obtained by liner regression. Km and maximum reaction rate (Vmax-obs) was determined from the equation v0=Vmax[S]/(Km+[S]) and solved by nonlinear regression using GraphPad Prism 5. All measurements were in biological triplicate.
Determination of the Inhibition Constant (Ki) of the Compounds to Cathepsin B
The cathepsin B (human Liver) in assay buffer (25 μL) was mixed with the conjugate (25 μL) in 96-well plate. After the solution was mixed, the Z-Arg-Arg-AMC in assay buffer (50 μL) was added to the well, yielding a final cathepsin B concentration of 1 nM, conjugate concentration ([C]) of 15 nM or 5 μM, and substrate concentration ([S]) of 25 μM, 50 μM, 100 μM, 500 μM and 1 mM. The mixture was incubated at 37° C. and the fluorescence of the liberated aminomethylcoumarin at 460 nM using 355 nm excitation was measured at predetermined time points (0, 2, 4, 6, 8, and 10 minutes). The fluorescence intensity was plotted versus time with observed reaction rates (v0-obs) calculated as the slope of the trend lines obtained by liner regression. The observed rate constant (Kobs) and observed maximum reaction rate (Vmax-obs) was determined from the equation v0-obs=Vmax-obs [S]/(Kobs+[S]) and solved by nonlinear regression using GraphPad Prism 5. The Ki was calculated from the equation Kobs=Km (1+[C]/Ki). All measurements were in biological triplicate.

HT-29 cells [6] = assay: HT-29 cell efflux study; format: cell-based, human; conditions: at 24 hours
Description: The HT-29 Cell Efflux Studies
The ^177Lu radioconjugate was added to a sterilized 1.5 mL microcentrifuge tube containing HT-29 cells ˜1×10^6) suspended in 300 μL of cell culture medium, yielding a final radioactivity concentration of 100,000 cpm/100 μL, and was incubated for 2 hours at 37° C. After the removal of the culture medium, the cells were washed with fresh medium (5×500 μL) followed by the addition of 500 μL of fresh medium for the efflux assay. At 0, 1, 2, 4, 8, and 24 hour time interval, fresh medium (500 μL) was added to the tube to replace the old medium which was harvested for quantitative analysis of the effluxed radioactivity using a gamma counter. The cells were lysed with a 10% aqueous SDS solution at 24 hour to quantify the remaining internalized radioactivity. The effluxed fraction is expressed as a percentage of the total radioactivity added to the tube, which is the sum of the effluxed and internalized fractions obtained from the study.

HT-29 xenograft tumors [7] = system: HT-29 xenograft tumors; set-up: species or system mice; conditions: mouse
Description: Evaluation of Cysteine Proteases Trapping of the Cy 5-Labeled Conjugates
The Cy 5-labeled conjugates (40 nmol) were intravenously injected to the tumor bearing mice. The mice were sacrificed at 24 post-injection time points, and the heart, lung, liver, spleen, pancreas, kidney, intestine, brain, and tumor were excised and imaged using an IVIS spectrum system. The tumor and organs were homogenized in RIPA buffer (50 mg/100 μL) containing Halt™ protease inhibitor (100×, 1 μL) on ice and centrifuged to remove the pellet. An aliquot (18 μL) of the supernatant of the sample was added in NuPAGE® sample reducing reagent (10×, 2 μL) and denatured at 80° C. for 2 minutes. The sample was mixed with Novex Tris-Glycine S DS sample buffer (2×, 20 μL) and incubated for further 10 minutes. The mixtures (20 μL) were loaded onto a Novex 16% tris-glycine gel and analyzed by SDS-PAGE at 110 V for 90 minutes, followed by electro transferring onto PVDF membranes. The PVDF membranes were blocked by animal-free blocking buffer for 1 hour at room temperature and then were incubated with Cathepsin B (D1C7Y) XP® Rabbit mAb at 4° C. for overnight. Membranes was then incubated with Goat anti-Rabbit IgG (H+L) secondary antibody at room temperature for 1 hour and visualized using Typhoon FLA 9500.

CatL = CatL (Homo sapiens, UniProt P07711); assay: CatL inhibition constant; format: biochemical
CatL, sequence (P07711 114-333): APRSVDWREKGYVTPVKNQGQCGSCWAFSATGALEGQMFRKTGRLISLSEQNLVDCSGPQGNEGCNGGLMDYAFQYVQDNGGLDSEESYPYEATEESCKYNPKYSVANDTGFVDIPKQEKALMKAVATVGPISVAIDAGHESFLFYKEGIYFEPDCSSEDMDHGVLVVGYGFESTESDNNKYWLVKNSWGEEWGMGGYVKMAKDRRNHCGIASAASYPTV

GRPR = GRPR (Homo sapiens, UniProt P30550); assay: GRPR affinity of GRPR-targeted agents; format: binding
GRPR, sequence (P30550 whole entry): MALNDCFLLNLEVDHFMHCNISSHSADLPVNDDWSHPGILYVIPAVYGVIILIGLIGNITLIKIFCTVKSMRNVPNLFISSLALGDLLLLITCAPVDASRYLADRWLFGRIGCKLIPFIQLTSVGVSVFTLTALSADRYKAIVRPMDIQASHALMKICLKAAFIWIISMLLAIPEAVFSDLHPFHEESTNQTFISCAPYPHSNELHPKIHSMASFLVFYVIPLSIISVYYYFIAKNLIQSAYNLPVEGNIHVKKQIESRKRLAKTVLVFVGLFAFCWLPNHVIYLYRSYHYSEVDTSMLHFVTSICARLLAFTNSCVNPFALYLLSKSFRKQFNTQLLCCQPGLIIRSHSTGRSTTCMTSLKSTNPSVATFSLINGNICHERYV

PC-3 tumor = conditions: mouse, in vivo
CatB = CatB (Homo sapiens, UniProt P07858); assay: CatB inhibition of GRPR-targeted agents; format: biochemical
Description: The Inhibition of Cathepsin B Activity by the Conjugates The phosphate buffer (0.1 M, pH=5.8) containing EDTA (1 mM), DTT (2.7 mM), and Brij®35 (0.03%) was prepared before the assay. […] The solution of cathepsin B (human Liver) in assay buffer (50 μL, 0.544 nM) was added to the mixture which was further incubated at 37° C. for 20 minutes. The fluorescence of the liberated aminomethylcoumarin at 460 nM using 355 nm excitation was measured and the IC50 of the cathepsin B inhibition versus the samples without the inhibitor was determined by nonlinear regression using GraphPad Prism 5.

## Cc1cc(O)cc(C)c1C[C@H](NC(=O)[C@@H]1CCCN1C(=O)[C@H](CCCNC(=N)N)NC(=O)[C@H](CCCNC(=N)N)N(C)C(=O)[C@@H]1CCCN1C(=O)[C@H](CCCCN)NC(=O)[C@@H](CO)NC(=O)[C@@H](CO)NC(=O)[C@@H](CO)NC(=O)[C@H](Cc1cn(CC(=O)N[C@H](CO)C(=O)N[C@H](CO)C(=O)N[C@H](CO)C(=O)NCC(=O)NCCCC[C@H](NC(=O)[C@H](Cc2ccccc2)NC(=O)OCc2ccccc2)C(=O)NCCc2ccccc2)nn1)NC(=O)CN1CCN(CC(=O)O)CCN(CC(=O)O)CCN(CC(=O)O)CC1)C(=O)N[C@H](C(=O)N[C@@H](CC(C)C)C(=O)O)C(C)(C)C [Compound 3b]
HT-29 xenograft tumors [1]
  decrease in tumor retention: 40%
[2]
  logD7.4: −2.01 ± 0.06^b
HT-29 xenograft tumors [3]
  in vivo adduct formation (in words): no signs of adduct formation
HT-29 cells [4]
  intracellular adduct formation (in words): no adduct formation
[5]
  CatB K1: ni
  Ki and inhibition IC50 to CatB (in words): did not demonstrate any inhibition
HT-29 cells [6]
  efflux: 69%

## Cc1cc(C)c(C(=O)OCC(=O)[C@H](CCCCNC(=O)CNC(=O)[C@@H](CO)NC(=O)[C@@H](CO)NC(=O)[C@@H](CO)NC(=O)Cn2cc(C[C@H](NC(=O)CCCCC[N+]3=C(/C=C/C=C/C=C4/N(C)c5ccccc5C4(C)C)C(C)(C)c4ccccc43)C(=O)N[C@H](CO)C(=O)N[C@H](CO)C(=O)N[C@H](CO)C(=O)N[C@@H](CCCCN)C(=O)N3CCC[C@H]3C(=O)N(C)[C@@H](CCCNC(=N)N)C(=O)N[C@@H](CCCNC(=N)N)C(=O)N3CCC[C@H]3C(=O)N[C@@H](Cc3c(C)cc(O)cc3C)C(=O)N[C@H](C(=O)N[C@@H](CC(C)C)C(=O)O)C(C)(C)C)nn2)NC(=O)[C@H](Cc2ccccc2)NC(=O)OCc2ccccc2)c(C)c1 [Compound 4a]
HT-29 xenograft tumors [7]
  tumor retention by ex vivo imaging (in words): greater than its counterpart 4b

## Cc1cc(O)cc(C)c1C[C@H](NC(=O)[C@@H]1CCCN1C(=O)[C@H](CCCNC(=N)N)NC(=O)[C@H](CCCNC(=N)N)N(C)C(=O)[C@@H]1CCCN1C(=O)[C@H](CCCCN)NC(=O)[C@@H](CO)NC(=O)[C@@H](CO)NC(=O)[C@@H](CO)NC(=O)[C@H](Cc1cn(CCNC(=O)[C@H](CCCNC(=N)N)NC(=O)[C@H](CC(C)C)NC(=O)CCC(=O)O)nn1)NC(=O)CN1CCN(CC(=O)O)CCN(CC(=O)O)CCN(CC(=O)O)CC1)C(=O)N[C@H](C(=O)N[C@@H](CC(C)C)C(=O)O)C(C)(C)C [Ec]
CatL
  CatL Ki: ni^b
[5]; Table 3
  CatB Ki: ni^b

## CSCC[C@H](NC(=O)[C@H](CC(C)C)NC(=O)[C@H](Cc1c[nH]cn1)NC(=O)CNC(=O)[C@@H](NC(=O)[C@H](C)NC(=O)[C@H](Cc1c[nH]c2ccccc12)NC(=O)[C@H](CCC(N)=O)NC(=O)CCOCCOCCOCCOCCNC(=O)[C@H](Cc1cn(CCNC(=O)[C@H](CCCNC(=N)N)NC(=O)[C@H](CC(C)C)NC(=O)CCC(=O)O)nn1)NC(=O)CN1CCN(CC(=O)O)CCN(CC(=O)O)CCN(CC(=O)O)CC1)C(C)C)C(N)=O [^177Lu-C-AG, metal not drawn]
GRPR
  IC50: 16.5 ± 3.3 nM
PC-3 tumor
  tumor retention: 32%
CatB
  IC50: > 200000 nM
